Test results: PMC11604048, “Constrained TACC3 peptidomimetics for a non-canonical protein–protein interface elucidate allosteric communication in Aurora-A kinase” (Chemical Science, 2024)
Read-outs that look alike come from different tables or passages of the source. One block for each molecule: values may come before it. *1 amine or outer side, *2 acyl side, *3 side chain or, on linkers, in order; H or OH if unused. Where a SMILES comes first, the peptide text is derived from it. Bridges are numbered along the chain shown (N, C = ends). Biphenyl(4,4'-CH2)2 = c1cc(-c2ccc(C[*:2])cc2)ccc1C[*:1]; Maleimide(3,4-diyl) = O=C1NC(=O)C([*:2])=C1[*:1]

Molecular target: T1, Aurora-A122-403-C290A/C393A (Homo sapiens, UniProt O14965, C290A/C393A)
T1 construct: Human Aurora-A kinase domain 122-403 wild-type or C290A/ C393A mutant; His tag (pET30TEV vector) (N, cleaved yes); made in house; host or cells: E. coli RIL, co-expressed with lambda phosphatase (Aurora-A); tracer by solid phase synthesis
T1 sequence (O14965 122-403 C290A/C393A): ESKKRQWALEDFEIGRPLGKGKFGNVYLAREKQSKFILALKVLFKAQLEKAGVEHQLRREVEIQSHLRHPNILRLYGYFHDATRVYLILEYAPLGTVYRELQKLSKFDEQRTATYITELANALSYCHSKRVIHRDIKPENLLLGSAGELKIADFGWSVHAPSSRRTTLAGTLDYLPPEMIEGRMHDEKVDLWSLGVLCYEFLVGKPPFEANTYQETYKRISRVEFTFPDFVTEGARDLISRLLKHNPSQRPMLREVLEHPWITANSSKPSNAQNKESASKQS
Experiment: Competition FA assay against FAM-Ahx-TACC3 522-536 tracer
Format: binding
Method: Once completed, the mixtures were transferred into SPPS fritted reaction vessels and washed with H2O (5X, 10 mL, 2 min), DMF (5X, 5mL, 2 min) and DCM (5X, 5 mL, 2 min). The clean resins were dried under vacuum and the cyclic peptides cleaved from the resin following the general procedures described in previous sections. After Et2O precipitation, the crude materials were freeze-dried and redissolved in H2O/MeCN/TFA 90/10/0.1% v/v for preparative HPLC purification.
All disulfide peptide variants (ox) were produced in situ from their free-thiol solid precursors. For this, 2 mg of the pure peptide materials were dissolved in aqueous DMSO 33% v/v to a 10 mM concentration and were left open to air oxidation at room temperature overnight. […]
the peptides were employed for FA competition assays and IC50 evaluation without further additional […]
Fluorescence anisotropy (FA) assays – General information.
All assays were performed using 384-well plates(Greiner Bio-one, UK). […]
produced as described previously.11 All samples were prepared in 25 mM Tris,150 mM NaCl, 5 mM MgCl2, pH= 7.5, unless otherwise stated, and tested in triplicate using an EnVisionTM 2103 MultiLabel plate reader (PerkinElmer; Waltham, MA, USA).The parameters were set as follows: Excitation wavelength = 480 nm (30 nm bandwidth) and emission wavelength = 535 nm (30 nm bandwidth). Measured data were processed and analysed as previously described.12 Specifically, the perpendicular intensity (P) and parallel intensity (S) were subtracted by the control values and used for calculations of intensity and anisotropy using the following Equations 1, 2, 3, 4, and 5:
I= (2PG) + S Eq. (SI − 5)
r = (S − PG) Eq. (SI − 6)
L = r − r௠௜௡ Eq. (SI − 7)
y = (k + x + [FL]) − ඥ(k + x + [FL]2 − 4 ∗ x ∗ [FL]) Eq. (SI − 8)
y = r + r௠௜௡ − r௠௔௫ Eq. (SI − 9)
Where I = total intensity; P = perpendicular intensity; S = parallel intensity; G = instrument factor; r = anisotropy; Lb = ligand bound fraction; λ = change in intensity between bound and unbound states which […]
FA direct binding assays. […]
starting from 700 μM, diluted over 24 points in a 1/2 regime using the FAM-Ahx-labeled peptides at a final fixed concentration of 50 nM per well.
FA competition assays were performed using the same plates and buffer as described above, with the initial […]
14 points in a 1/2 regime. […]
after 4 h of incubation to enable appropriate sample equilibration. To prevent sample oxidation, when sulfhydryl peptides were analyzed DTT was added to the buffer (5 mM). In competition mode, the average anisotropy and the average standard deviation of the values derived from equation SI-6 were calculated and fit to a sigmoidal logistic model (equation SI-9) using Origin 2021. When using peptides for which full […]
For consistency, all the data […]
indicating the corresponding SD. […]

[1] = as E1, oxidised (disulfide) species made in situ from 10 mM stock in aqueous DMSO 33% v/v, air, overnight, WT control (+DMSO) given the same DMSO incubation, mean ± SD, n = 3, read-out: IC50 (ox)
[2] = as E1, free-sulfhydryl (reduced) species, DTT 5 mM in buffer, WT control (+DTT), mean ± SD, n = 3, SD, read-out: IC50 (red)

Molecule: CC(=O)N[C@@H](CCC(=O)O)C(=O)N[C@@H](CCC(=O)O)C(=O)N[C@@H](CO)C(=O)N[C@@H](Cc1ccccc1)C(=O)N[C@H]1CSSC[C@@H](C(=O)N[C@@H](CCC(=O)O)C(=O)N[C@H](C(=O)N[C@@H](CC(C)C)C(=O)NCC(=O)N[C@H](C(=O)NCC(=O)N[C@@H](C)C(N)=O)[C@@H](C)O)C(C)C)NC(=O)[C@@H]2CCCN2C(=O)[C@H](CC(=O)O)NC1=O [TACC3 522-536 R526C/A529C (ox)] (Ac-EESFCDPCEVLGTGA-NH2; disulfide 5-8)
IC50 [1]: ≥ 500 µM

Molecule: CC(=O)N[C@@H](CC(C)C)C(=O)N[C@@H](CCC(=O)O)C(=O)N[C@H]1CSCc2ccc(cc2)-c2ccc(cc2)CSC[C@@H](C(=O)N[C@@H](CC(=O)O)C(=O)N2CCC[C@H]2C(=O)N[C@@H](C)C(=O)N[C@@H](CCC(=O)O)C(=O)N[C@H](C(=O)N[C@@H](CC(C)C)C(N)=O)C(C)C)NC(=O)[C@H](Cc2ccccc2)NC(=O)[C@H](CO)NC(=O)[C@H](CCC(=O)O)NC(=O)[C@H](CCC(=O)O)NC(=O)[C@H](CCCCN)NC1=O [TACC3 518-532 L520C/R526C (Bph)] (Ac-LECKEESFCDPAEVL-NH2; linker 3-9 via Biphenyl(4,4'-CH2)2)
fold enhanced inhibitory potency (IC50) compared to the WT peptide (competition FA IC50 ratio vs WT): up to 4 fold

Molecule: CC(=O)N[C@@H](CCC(=O)O)C(=O)N[C@@H](CCC(=O)O)C(=O)N[C@@H](CO)C(=O)N[C@@H](Cc1ccccc1)C(=O)N[C@@H](CCCNC(=N)N)C(=O)N[C@@H](CC(=O)O)C(=O)N1CCC[C@H]1C(=O)N[C@@H](C)C(=O)N[C@@H](CCC(=O)O)C(=O)N[C@H](C(=O)N[C@H]1CSSC[C@@H](C(=O)N[C@@H](C)C(N)=O)NC(=O)[C@H]([C@@H](C)O)NC(=O)CNC1=O)C(C)C [TACC3 522-536 L532C/G535C (ox)] (Ac-EESFRDPAEVCGTCA-NH2; disulfide 11-14)
IC50 [1]: ≥ 500 µM

Molecule: CC(=O)N[C@@H](CCC(=O)O)C(=O)N[C@H]1CSC2=C(SC[C@@H](C(=O)N[C@@H](CC(=O)O)C(=O)N3CCC[C@H]3C(=O)N[C@@H](C)C(=O)N[C@@H](CCC(=O)O)C(=O)N[C@H](C(=O)N[C@@H](CC(C)C)C(=O)NCC(=O)N[C@H](C(=O)NCC(=O)N[C@@H](C)C(N)=O)[C@@H](C)O)C(C)C)NC(=O)[C@H](Cc3ccccc3)NC(=O)[C@H](CO)NC1=O)C(=O)NC2=O [TACC3 522-536 E523C/R526C (mal)] (Ac-ECSFCDPAEVLGTGA-NH2; linker 2-5 via Maleimide(3,4-diyl))
IC50 (as E1, Table S3 (mal): maleimide-constrained species, WT value is an individual replica control assay, mean ± SD, n = 3, SD, read-out: IC50 (mal)): 376 ± 28 µM

Molecule: CC(=O)N[C@@H](CCC(=O)O)C(=O)N[C@@H](CCC(=O)O)C(=O)N[C@@H](CO)C(=O)N[C@@H](Cc1ccccc1)C(=O)N[C@@H](CCCNC(=N)N)C(=O)N[C@@H](CC(=O)O)C(=O)N1CCC[C@H]1C(=O)N[C@@H](C)C(=O)N[C@@H](CCC(=O)O)C(=O)N[C@H](C(=O)N[C@@H](CC(C)C)C(=O)N[C@@H](CS)C(=O)N[C@H](C(=O)NCC(=O)N[C@@H](CS)C(N)=O)[C@@H](C)O)C(C)C [TACC3 522-536 G533C/A536C (red)] (Ac-EESFRDPAEVLCTGC-NH2)
IC50 [2]: 80 ± 3 µM

Next, values leading:

IC50 (read-out: IC50): ≥ 500 µM
Molecule: Ac-EESYRDPAEVLGTGA-NH2 [TACC3 522-536_F525Y]

IC50 [2]: 352 ± 45 µM
Molecule: CC(=O)N[C@@H](CCC(=O)O)C(=O)N[C@@H](CCC(=O)O)C(=O)N[C@@H](CO)C(=O)N[C@@H](Cc1ccccc1)C(=O)N[C@@H](CS)C(=O)N[C@@H](CC(=O)O)C(=O)N1CCC[C@H]1C(=O)N[C@@H](CS)C(=O)N[C@@H](CCC(=O)O)C(=O)N[C@H](C(=O)N[C@@H](CC(C)C)C(=O)NCC(=O)N[C@H](C(=O)NCC(=O)N[C@@H](C)C(N)=O)[C@@H](C)O)C(C)C [TACC3 522-536 R526C/A529C (red)] (Ac-EESFCDPCEVLGTGA-NH2)
